Structures can show the parent of a compound that is named as a salt.
Target: RIPK1 (recombinant GST-RIPK1 kinase domain, residues 1-327) (Homo sapiens (Human), UniProt Q13546)
Assay: RIPK1-ADP-Glo Enzymatic Assay
Assay type: biochemical
Conditions: ADP-Glo; 25 nM GST-RIPK1, 300 μM ATP; assay lower limit ~25 nM; read-out: RIPK1 V0 Ec50
Experimental: RIPK1-ADP-Glo Enzymatic Assay
The enzymatic activity of RIPK1 is measured using an assay derived from ADP-Glo kit (TMPromega), which provides a luminescent-based ADP detection system. Specifically, the ADP generated by RIPK1 kinase is proportionally detected as luminescent signals in a homogenous fashion. In this context, the assessment of the inhibitory effect of small molecules (EC50) is measured by the effectiveness of the compounds to inhibit the ATP to ADP conversion by RIPK1.
In this assay, the potency (EC50) of each compound was determined from a ten-point (1:3 serial dilution; top compound concentration of 100000 nM) titration curve using the following outlined procedure. The assay bottom or lower limit of confidence is ˜25 nM. To each well of a white ProxiPlus 384 well-plate, 30 nL of compound (1% DMSO in final assay volume of 3 μL) was dispensed, followed by the addition of 2 μL of 1×assay buffer (25 mM Hepes 7.3, 20 mM MgCl2, 50 mM NaCl, 1 mM DTT, 0.005% Tween20, and 0.02% BSA) containing 37.5 nM of GST-RIPK1 (recombinant GST-RIPK1 kinase domain (residues 1-327) enzyme produced from baculovirus-transfected Sf21 cells: MW=62 kDa). Plates were placed in an ambient temperature humidified chamber for a 30-minute pre-incubation with compound. Subsequently, each reaction was initiated by the addition of 1 μL 1×assay buffer containing 900 μM ATP and […] dephosphorylated-MBP substrate. The final reaction in each well of 3 μL consists of 25 nM of GST-RIPK1, 300 μM ATP, and 3 μM dephosphorylated-MBP. Kinase reactions were allowed to proceed for 150 minutes prior to adding ADP-Glo reagents per Promega's outlined kit protocol. Dose-response curves were generated by plotting percent effect (% product conversion; Y-axis) vs. Log10 compound concentrations (X-axis). EC50 values were calculated using a non-linear regression, four-parameters sigmoidal dose-response model.

Chain of RIPK1 (recombinant GST-RIPK1 kinase domain, residues 1-327) (Q13546 1-327): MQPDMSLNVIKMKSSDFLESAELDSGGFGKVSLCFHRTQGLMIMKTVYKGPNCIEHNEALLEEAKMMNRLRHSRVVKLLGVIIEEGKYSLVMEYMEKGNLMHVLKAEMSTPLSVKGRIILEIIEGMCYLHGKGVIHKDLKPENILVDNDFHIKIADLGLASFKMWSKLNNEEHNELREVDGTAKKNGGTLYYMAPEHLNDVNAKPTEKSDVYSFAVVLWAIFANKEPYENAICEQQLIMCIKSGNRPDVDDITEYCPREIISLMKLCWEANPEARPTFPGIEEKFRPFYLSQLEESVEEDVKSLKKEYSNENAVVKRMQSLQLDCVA

Structure (SMILES) | EC50 [nM]
O=C(c1ccoc1)N1CCC2(CC1)O[C@@H]1CC[C@@H](c3cc(F)cc(F)c3)N1C2=O [Example 5.36, (5′S,7a′R)-5′-(3,5-difluoro-phenyl)-1-(furan-3-carbon-yl)tetrahydro-3′H-spiro [piperidine-4,2′-pyrrolo-[2,1-b]oxazol]-3′-one] | < 25
Cc1ncc([C@@H]2CC[C@H]3OC4(CCN(c5ccnc6c(F)cnn56)CC4F)C(=O)N32)cc1F (stereo partly drawn) [Example 4.131, (5′S,7a′R)-3-fluoro-5′-(5-fluoro-6-methylpyridin-3-yl)-1-(3-fluoropyrazolo[1,5-a]pyrimidin-7-yl)tetrahydro-3′H-spiro[piperidine-4,2′-pyrrolo[2,1-b] [1,3]oxazol]-3′-one] | 30.6
CC1CN(c2cccc3ncnn23)CCC12O[C@@H]1CC[C@@H](c3ccccc3)N1C2=O (stereo partly drawn) [Example 4.243, (4R,5′S,7a′R)-3-methyl-5′-phenyl-1-([1,2,4]triazolo[1,5-a]pyridin-5-yl)tetrahydro-3′H-spiro[piperidine-4,2′-pyrrolo[2,1-b] [1,3]oxazol]-3′-one] | 26.3
O=C1N2[C@@H](CC[C@H]2c2ccccc2F)OC12CCN(c1cc(Cl)ncn1)CC2 [Example 4.99, (5′S,7a′R)-1-(6-chloropyrimidin-4-yl)-5′-(2-fluorophenyl)tetrahydro-3′H-spiro[piperidine-4,2′-pyrrolo[2,1-b]oxazol]-3′-one] | < 25
COc1cccc(C(=O)N2CCC3(CC2)O[C@@H]2CC[C@@H](c4cc(F)cc(F)c4)N2C3=O)c1F [Example 6.7, (5′S,7a′R)-5′-(3,5-difluorophenyl)-1-(2-fluoro-3-methoxy-benzene-1-carbonyl) tetrahydro-3′H-spiro [piperidine-4,2′-pyrrolo[2,1-b][1,3]oxazol]-3′-one] | < 25
O=C(c1nc(N2CCC3(CC2)O[C@@H]2CC[C@@H](c4cc(F)cc(F)c4)N2C3=O)ncc1F)N1CC(F)C1 [Example 7.7, (5′S,7a′R)-5′-(3,5-difluorophenyl)-1-[5-fluoro-4-(3-fluoroazetidine-1-carbonyl)pyrimidin-2-yl]tetrahydro-3′H-spiro[piperidine-4,2′-pyrrolo[2,1-b][1,3]oxazol]-3′-one] | < 25
O=C1N2[C@@H](CC[C@H]2c2ccccc2)OC12CCN(c1ccc(Cl)c3ncnn13)CC2 [Example 15.3, (5′S,7a′R)-1-(8-chloro-[1,2,4]triazolo[1,5-a]pyridin-5-yl)-5′-phenyltetrahydro-3′H-spiro[piperidine-4,2′-pyrrolo[2,1-b]oxazol]-3′-one, TFA salt] | < 25
Cc1nc(N2CCC3(CC2)OC2CCC(c4cnccn4)N2C3=O)ccc1C#N (stereo not shown) [Example 4.142, 2-methyl-6-[3′-oxo-5′-(pyrazin-2-yl)tetrahydro-1H,3′H-spiro[piperidine-4,2′-pyrrolo[2,1-b] [1,3]oxazol]-1-yl]pyridine-3-carbonitrile] | < 25
O=C1N2[C@@H](CC[C@H]2c2ccccc2)OC12CCN(c1ncnc3ccnn13)CC2 [Example 4.93, (5′S,7a′R)-5′-phenyl-1-(pyrazolo[1,5-a] [1,3,5]triazin-4-yl)tetrahydro-3′H-spiro[piperidine-4,2′-pyrrolo[2,1-b]oxazol]-3′-one, TFA salt] | < 25
O=C1N2[C@@H](CC[C@H]2c2ccccc2F)OC12CN(c1ncco1)C2 [Example 4.272, (5′S,7a′R)-5′-(2-fluorophenyl)-1-(1,3-oxazol-2-yl)tetrahydro-3′H-spiro[azetidine-3,2′-pyrrolo[2,1-b] [1,3]oxazol]-3′-one] | 931
O=C(c1ncnc2c1CCC2)N1CCC2(CC1)O[C@@H]1CC[C@@H](c3cc(F)cc(F)c3)N1C2=O [Example 6.15, (5′S,7a′R)-5′-(3,5-difluorophenyl)-1-(6,7-dihydro-5H-cyclopenta[d]pyrim-idine-4-carbonyl)-tetrahydro-3′H-spiro [piperidine-4,2′-pyrrolo-[2,1-b][1,3]oxazol]-3′-one] | 547
N#Cc1cc(N2CCC3(CC2)O[C@@H]2CC[C@@H](c4ccccc4F)N2C3=O)ncn1 [Example 4.104, 6-((5′S,7a′R)-5′-(2-fluorophenyl)-3′-oxotetrahydro-3′H-spiro[piperidine-4,2′-pyrrolo[2,1-b]oxazol]-1-yl)pyrimidine-4-carbonitrile] | 33.9
Cc1cc(N2CCC3(CC2)O[C@@H]2CC[C@@H](c4ccccc4)N2C3=O)nc(C#N)n1 [Example 4.2, 4-methyl-6-[(5′S,7a′R)-3′-oxo-5′-phenyltetrahydro-1H,3′H-spiro[piperidine-4,2′-pyrrolo[2,1-b] [1,3]oxazol]-1-yl]pyrimidine-2-carbonitrile] | < 25
N#Cc1ccccc1C(=O)N1CCC2(CC1)O[C@@H]1CC[C@@H](c3cccc(F)c3)N1C2=O [Example 6.129, 2-[(5′S,7a′R)-5′-(3-fluorophenyl)-3′-oxotetrahydro-1H,3′H-spiro[piperidine-4,2′-pyrrolo[2,1-b][1,3]-oxazole]-1-carbonyl] benzonitrile] | 188
Cc1ccc(C)c(C(=O)N2CCC3(CC2)O[C@@H]2CC[C@@H](c4ccccc4)N2C3=O)c1 [Example 6.142, (5′S,7a′R)-1-(2,5-dimethylbenzene-1-carbonyl)-5′-phenyl-tetrahydro-3′H-spiro [piperidine-4,2′-pyrrolo[2,1-b][1,3]oxazol]-3′-one] | 75.1
Cc1nc(N2CCC3(CC2)O[C@@H]2CC[C@@H](c4cc(F)cc(F)c4)N2C3=O)ccc1C#N [Example 4.42, 6-[(5′S,7a′R)-5′-(3,5-difluorophenyl)-3′-oxotetrahydro-1H,3′H-spiro[piperidine-4,2′-pyrrolo[2,1-b] [1,3]oxazol]-1-yl]-2-methylpyridine-3-carbonitrile] | < 25
Cc1ccncc1C(=O)N1CCC2(CC1)O[C@@H]1CC[C@@H](c3cc(F)cc(F)c3)N1C2=O [Example 6.51, (5′S,7a′R)-5′-(3,5-difluorophenyl)-1-(4-methylpyridine-3-carbonyl)tetrahydro-3′H-spiro[piperidine-4,2′-pyrrolo[2,1-b] [1,3]oxazol]-3′-one] | 600
COC(=O)c1ccc(N2CCC3(CC2)O[C@@H]2CC[C@@H](c4ccccc4)N2C3=O)nc1 [Example 4.202, methyl 6-[(5′S,7a′R)-3′-oxo-5′-phenyltetrahydro-1H,3′H-spiro[piperidine-4,2′-pyrrolo[2,1-b] [1,3]oxazol]-1-yl]pyridine-3-carboxylate] | 38.5
O=C1N2[C@@H](CC[C@H]2c2ccccc2F)OC12CCN(c1ccnc3ccnn13)CC2 [Example 4.103, (5′S,7a′R)-5′-(2-fluorophenyl)-1-(pyrazolo[1,5-a]pyrimidin-7-yl)tetrahydro-3′H-spiro[piperidine-4,2′-pyrrolo[2,1-b]oxazol]-3′-one] | < 25
N#Cc1cc(C(=O)N2CCC3(CC2)O[C@@H]2CC[C@@H](c4ccccc4)N2C3=O)ccc1F [Example 6.138, 2-fluoro-5-[(5′S,7a′R)-3′-oxo-5′-phenyl-tetrahydro-1H,3′H-spiro[piperidine-4,2′-pyrrolo[2,1-b][1,3]-oxazole]-1-carbonyl]-benzonitrile] | < 25
O=C(c1csnn1)N1CCC2(CC1)O[C@@H]1CC[C@@H](c3cc(F)cc(F)c3)N1C2=O [Example 5.49, (5′S,7a′R)-5′-(3,5-difluoro-phenyl)-1-(1,2,3-thiadi-azole-4-carbonyl)tetra-hydro-3′H-spiro[piperidine-4,2′-pyrrolo[2,1-b]oxazol]-3′-one] | 78.1
COc1ccc(N2CCC3(CC2)O[C@@H]2CC[C@@H](c4ccccc4)N2C3=O)n2ncnc12 [Example 19.8, (5′S,7a′R)-1-(8-methoxy[1,2,4]triazolo [1,5-a]pyridin-5-yl)-5′-phenyltetrahydro-3′H-spiro[piperidine-4,2′-pyrrolo[2,1-b][1,3]oxazol]-3′-one] | 394
O=C(c1cc(Cl)ccc1F)N1CCC2(CC1)O[C@@H]1CC[C@@H](c3ccccc3F)N1C2=O [Example 1.14, (5′S,7a′R)-1-(5-chloro-2-fluorobenzoyl)-5′-(2-fluorophenyl)tetrahydro-3′H-spiro[piperidine-4,2′-pyrrolo[2,1-b]oxazol]-3′-one] | < 25
Cn1nccc1C(=O)N1CCC2(CC1)O[C@@H]1CC[C@@H](c3cc(F)cc(F)c3)N1C2=O [Example 5.38, (5′S,7a′R)-5′-(3,5-difluoro-phenyl)-1-(1-methyl-1H-pyrazole-5-carbonyl)tetra-hydro-3′H-spiro[piperi-dine-4,2′-pyrrolo[2,1-b]oxazol]-3′-one] | 103
O=C(c1ccccc1)N1CCC2(CC1)SC1CC[C@@H](c3cc(F)cc(F)c3)N1C2=O (stereo partly drawn) [Example 1.22, (5′S)-1-benzoyl-5′-(3,5-difluorophenyl)tetrahydro-3′H-spiro[piperidine-4,2′-pyrrolo[2,1-b]thiazol]-3′-one] | < 25
